# Laboratory results reported in patent publication US7491723B2, “Alkanol and cycloalkanol-amine derivatives and methods of their use” (Wyeth, priority 2003, dated 2009).
# Counter-ions that a name gives are not always drawn.
# Biological target: T1, human hNET (Homo sapiens, UniProt P23975)
# T1 construct: expressed in transfected cells
# Experiment: Norepinephrine (NE) uptake assay in MDCK-Net6 cells
# Type: cell-based
# Details: 1 μM test compound, [3H]NE uptake
# Procedure: MDCK-Net6 cells, stably transfected with human hNET (Pacholczyk, T., R. D. Blakely, and S. G. Amara, Nature, 1991, 350(6316): p. 350-4) were cultured in growth medium containing high glucose DMEM (Gibco, Cat. No. 11995), 10% FBS (dialyzed, heat-inactivated, US Bio-Technologies, Lot FBD1129HI) and 500 μg/ml G418 (Gibco, Cat. No. 10131). Cells were plated at 300,000/T75 flask and cells were split twice weekly. The JAR cell line (human placental choriocarcinoma) was purchased from ATCC (Cat. No. HTB-144). The cells were cultured in growth medium containing RPMI 1640 (Gibco, Cat. No. 72400), 10% FBS (Irvine, Cat. No. 3000), 1% sodium pyruvate (Gibco, Cat. No. 1136) and 0.25% glucose. Cells were plated at 250,000 cells/T75 flask and split twice weekly. For all assays, cells were plated in Wallac 96-well sterile plates (PerkinElmer, Cat. No. 3983498).
# On day 1, cells were plated at 3,000 cells/well in growth medium and maintained in a cell incubator (37° C., 5% CO2). On day 2, growth medium was replaced with 200 μl of assay buffer (25 mM HEPES; 120 mM NaCl; 5 mM KCl; 2.5 mM CaCl2; 1.2 mM MgSO4; 2 mg/ml glucose (pH 7.4, 37° C.)) containing 0.2 mg/ml ascorbic acid and 10 μM pargyline. Plates containing cells with 200 μl of assay buffer were equilibrated for 10 minutes at 37° C. prior to addition of compounds. A stock solution of desipramine was prepared in DMSO (10 mM) and delivered to triplicate wells containing cells for a final test concentration of 1 μM. Data from these wells were used to define non-specific NE uptake (minimum NE uptake). Test compounds were prepared in DMSO (10 mM) and diluted in assay buffer according to test range (1 to 10,000 nM). Twenty-five microliters of assay buffer (maximum NE uptake) or test compound were added directly to triplicate wells containing cells in 200 μl of assay buffer. The cells in assay buffer with test compounds were incubated for 20 minutes at 37° C. To initiate the NE uptake, [^3H]NE diluted in assay buffer (120 nM final assay concentration) was delivered in 25 μl aliquots to each well and the plates were incubated for 5 minutes (37° C.). The reaction was terminated by decanting the supernatant from the plate. The plates containing cells were washed twice with 200 μl assay buffer (37° C.) to remove free radioligand. The plates were then inverted, left to dry for 2 minutes, then reinverted and air-dried for an additional 10 minutes. The cells were lysed in 25 μl of 0.25 N NaOH solution (4° C.), placed on a shake table and vigorously shaken for 5 minutes. After cell lysis, 75 μl of scintillation cocktail was added to each well and the plates were sealed with film tape. The plates were returned to the shake table and vigorously shaken for a minimum of 10 minutes to ensure adequate partitioning of organic and aqueous solutions. The plates were counted in a Wallac Microbeta counter (PerkinElmer) to collect the raw cpm data.
# For each experiment, a data stream of cpm values collected from the Wallac Microbeta counter was downloaded to a Microsoft Excel statistical application program. Calculations of EC50 values were made using the transformed-both-sides logistic dose response program written by Wyeth Biometrics Department. The statistical program uses mean cpm values from wells representing maximum binding or uptake (assay buffer) and mean cpm values from wells representing minimum binding or uptake ((1 μM desipramine (hNET) or 1 μM paroxetine (hSERT)). Estimation of the EC50 value was completed on a log scale and the line was fit between the maximum and minimum binding or uptake values. All graphic data representation was generated by normalizing each data point to a mean percent based on the maximum and minimum binding or uptake values. The EC50 values reported from multiple experiments were calculated by pooling the raw data from each experiment and analyzing the pooled data as one experiment.
# T1 sequence (P23975 whole entry): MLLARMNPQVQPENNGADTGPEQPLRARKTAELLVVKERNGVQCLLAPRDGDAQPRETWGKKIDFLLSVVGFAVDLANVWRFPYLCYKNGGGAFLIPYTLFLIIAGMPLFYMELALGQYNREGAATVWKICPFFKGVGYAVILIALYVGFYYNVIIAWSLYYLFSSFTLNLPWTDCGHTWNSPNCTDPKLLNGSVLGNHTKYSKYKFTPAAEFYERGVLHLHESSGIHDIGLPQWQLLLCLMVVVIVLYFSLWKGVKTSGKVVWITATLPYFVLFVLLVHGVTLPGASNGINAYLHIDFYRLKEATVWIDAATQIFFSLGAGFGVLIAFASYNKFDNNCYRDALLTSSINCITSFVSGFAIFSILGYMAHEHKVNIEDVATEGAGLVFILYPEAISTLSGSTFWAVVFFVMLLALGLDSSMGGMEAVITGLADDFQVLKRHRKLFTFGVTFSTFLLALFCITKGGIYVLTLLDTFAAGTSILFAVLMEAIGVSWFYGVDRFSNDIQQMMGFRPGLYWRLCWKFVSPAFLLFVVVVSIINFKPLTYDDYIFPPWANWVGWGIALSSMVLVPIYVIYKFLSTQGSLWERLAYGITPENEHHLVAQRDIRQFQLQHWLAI
row,Compound,inhibition at 1 µM [%]
1,"CN1CCC(O)(C(CN2CCNCC2)c2ccc(Cl)c(Cl)c2)CC1 (centres unmarked) [Example 37, 4-[1-(3,4-dichlorophenyl)-2-piperazin-1-ylethyl]-1-methylpiperidin-4-ol trihydrochloride]",57
2,"CCC(O)(CC)C(CN1CCNCC1)c1cccc(Br)c1 (centres unmarked) [Example 50, 2-(3-bromophenyl)-3-ethyl-1-piperazin-1-ylpentan-3-ol dihydrochloride]",89
3,"CCCC(O)(CCC)C(CN1CCNCC1)c1cccc(Cl)c1 (centres unmarked) [Example 51, 4-[1-(3-chlorophenyl)-2-piperazin-1-ylethyl]heptan-4-ol dihydrochloride]",44
4,"CCC(O)(CC)C(CN1CCNCC1)c1cccc(Cl)c1 (centres unmarked) [Example 52, 2-(3-chlorophenyl)-3-ethyl-1-piperazin-1-ylpentan-3-ol dihydrochloride]",37
5,"CN1CCC(O)(C(CN2CCNCC2)c2cccc(Br)c2)CC1 (centres unmarked) [Example 58, 4-[1-(3-bromophenyl)-2-piperazin-1-ylethyl]-1-methylpiperidin-4-ol dihydrochloride]",35
6,"CCC(O)(CC)C(CN1CCNCC1)c1ccc(OC)c(Br)c1 (centres unmarked) [Example 65, 2-(3-bromo-4-methoxyphenyl)-3-ethyl-1-piperazin-1-ylpentan-3-ol dihydrochloride]",12
7,"CCC(O)(CC)C(CN1CCN(C)CC1)c1ccc(OC)c(Br)c1 (centres unmarked) [Example 66, 2-(3-bromo-4-methoxyphenyl)-3-ethyl-1-(4-methylpiperazin-1-yl)pentan-3-ol dihydrochloride]",26
8,"OC1(C(CN2CCNCC2)c2cccc(Cl)c2)CCCC2CCCCC21 (centres unmarked) [Example 72, 1-[1-(3-chlorophenyl)-2-piperazin-1-ylethyl]decahydronaphthalen-1-ol dihydrochloride]",25
9,"COc1ccc(C(CN2CCN(C)CC2)C2(O)CCC(C(C)(C)C)CC2)cc1Br (centres unmarked) [Example 73, 1-[1-(3-bromo-4-methoxyphenyl)-2-(4-methylpiperazin-1-yl)ethyl]-4-tert-butylcyclohexano dihydrochloride]",25
10,"OC1(C(CN2CCNCC2)c2cccc(Cl)c2)CCC2CCCCC2C1 (centres unmarked) [Example 74, 2-[1-(3-chlorophenyl)-2-piperazin-1-ylethyl]decahydronaphthalen-2-ol dihydrochloride]",24
11,"OC1(C(CN2CCNCC2)c2cccc(Cl)c2)CCOCC1 (centres unmarked) [Example 77, 4-[1-(3-chlorophenyl)-2-piperazin-1-ylethyl]tetrahydro-2H-pyran-4-ol dihydrochloride]",31
12,"CN1CCN(CC(c2cccc(Cl)c2)C2(O)CCOCC2)CC1 (centres unmarked) [Example 78, 4-[1-(3-chlorophenyl)-2-(4-methylpiperazin-1-yl)ethyl]tetrahydro-2H-pyran-4-ol dihydrochloride]",22
13,"CN1CCN(CC(c2cccc(Br)c2)C2(O)CCC(C(C)(C)C)CC2)CC1 (centres unmarked) [Example 79, 1-[1-(3-bromophenyl)-2-(4-methylpiperazin-1-yl)ethyl]4-tert-butylcyclohexanol dihydrochloride]",20
14,"CCCC(O)(CCC)C(CN1CCNCC1)c1cccc(Br)c1 (centres unmarked) [Example 81, 4-[1-(3-bromophenyl)-2-piperazin-1-ylethyl]heptan-4-ol dihydrochloride]",18
15,"CCCC(O)(CCC)C(CN1CCN(C)CC1)c1cccc(Br)c1 (centres unmarked) [Example 82, 4-[1-(3-bromophenyl)-2-(4-methylpiperazin-1-yl)ethyl]heptan-4-ol dihydrochloride]",19
16,"COc1ccc(C(CN2CCNCC2)C2(O)CCC(C(C)(C)C)CC2)cc1Br (centres unmarked) [Example 84, 1-[1-(3-bromo-4-methoxyphenyl)-2-piperazin-1-ylethyl]4-tert-butylcyclohexanol dihydrochloride]",18
17,"CN1CCN(CC(c2cccc(Cl)c2)C(O)(C2CC2)C2CC2)CC1 (centres unmarked) [Example 86, 2-(3-chlorophenyl)-1,1-dicyclopropyl-3-(4-methylpiperazin-1-yl)propan-1-ol dihydrochloride]",16
18,"CN1CCN(CC(c2cccc(Br)c2)C2(O)CC(C)(C)CC(C)(C)C2)CC1 (centres unmarked) [Example 88, 1-[1-(3-bromophenyl)-2-(4-methylpiperazin-1-yl)ethyl]-3,3,5,5-tetramethylcyclohexanol dihydrochloride]",16
19,"CC(C)(C)C1CCC(O)(C(CN2CCNCC2)c2cccc(Cl)c2)CC1 (centres unmarked) [Example 93, 4-tert-butyl-1-[1-(3-chlorophenyl)-2-piperazin-1-ylethyl]cyclohexanol dihydrochloride]",12
20,"Clc1cccc(C(CN2CCNCC2)C2CCCC2)c1 (centres unmarked) [Example 226, 1-[2-(3-chlorophenyl)-2-cyclopentylethyl]piperazine dihydrochloride]",53
21,"CN1CCN(CC(c2cccc(Cl)c2)C2CCCC2)CC1 (centres unmarked) [Example 227, 1-[2-(3-chlorophenyl)-2-cyclopentylethyl]-4-methylpiperazine dihydrochloride]",48.2
22,"Clc1cccc(C(CN2CCNCC2)C2CCCCC2)c1 (centres unmarked) [Example 230, 1-[2-(3-chlorophenyl)-2-cyclohexylethyl]piperazine dihydrochloride]",88.3
23,"CN1CCN(CC(c2cccc(Cl)c2)C2CCCCC2)CC1 (centres unmarked) [Example 231, 1-[2-(3-chlorophenyl)-2-cyclohexylethyl]-4-methylpiperazine dihydrochloride]",91.2
24,"Clc1cccc(C(CN2CCNCC2)C2CCCCCC2)c1 (centres unmarked) [Example 234, 1-[2-(3-chlorophenyl)-2-cycloheptylethyl]piperazine dihydrochloride]",67.7
25,"CN1CCN(CC(c2cccc(Cl)c2)C2CCCCCC2)CC1 (centres unmarked) [Example 235, 1-[2-(3-chlorophenyl)-2-cycloheptylethyl]-4-methylpiperazine dihydrochloride]",80.5
26,"OC1CCCCC1C(CN1CCNCC1)c1cccc(Cl)c1 (centres unmarked) [Example 238, 2-[1-(3-chlorophenyl)-2-piperazin-1-ylethyl]cyclohexanol dihydrochloride]",72.9
27,"CC(C)(O)C(CN1CCNCC1)c1cccc(Cl)c1 (centres unmarked) [Example 275, 3-(3-chlorophenyl)-2-methyl-4-piperazin-1-ylbutan-2-ol dihydrochloride]",31
28,"CN1CCN(CC(c2cccc(Cl)c2)C(C)(C)O)CC1 (centres unmarked) [Example 276, 3-(3-chlorophenyl)-2-methyl-4-(4-methylpiperazin-1-yl)butan-2-ol dihydrochloride]",4
29,"CC1(C)CC(C)(C)CC(O)(C(CN2CCNCC2)c2cccc(Cl)c2)C1 (centres unmarked) [Example 277, 1-[1-(3-chlorophenyl)-2-piperazin-1-ylethyl]-3,3,5,5-tetramethylcyclohexanol dihydrochloride]",17
30,"CN1CCN(CC(c2cccc(Cl)c2)C2(O)CC(C)(C)CC(C)(C)C2)CC1 (centres unmarked) [Example 278, 1-[1-(3-chlorophenyl)-2-(4-methylpiperazin-1-yl)ethyl]-3,3,5,5-tetramethylcyclohexanol dihydrochloride]",25

# Same assay, conditions: at 10 μM test compound, [3H]NE uptake
row,Compound,inhibition at 10 µM [%]
1,"OC1(C(CN2CCNCC2)c2cccc3ccccc23)CCC2CCCCC2C1 (centres unmarked) [Example 329, 2-[1-(1-naphthyl)-2-piperazin-1-ylethyl]decahydronaphthalen-2-ol dihydrochloride]",20.9
2,"CN1CCN(CC(c2cccc(Cl)c2)C2(O)CCCC3CCCCC32)CC1 (centres unmarked) [Example 331, 1-[1-(3-chlorophenyl)-2-(4-methylpiperazin-1-yl)ethyl]decahydronaphthalen-1-ol dihydrochloride]",11.4
